Test results: EP0750618B1, “OXAZOLIDINONE DERIVATIVES AND PHARMACEUTICAL COMPOSITIONS CONTAINING THEM” (priority 1994, dated 1995)
≈ marks a conversion by molar mass, not a printed value.

Tests used:
Assay in all cases: MIC test, standard agar dilution method
[1] = test system: Staphylococcus epidermidis (UC 12084); assay type: cell-based; settings: UC12084, incubated overnight at 35°C, read-out: Minimum Inhibitory Concentrations (MIC) S. enidermidis
Staphylococcus aureus = settings: UC9213, read-out: Minimum Inhibitory Concentrations (MIC) S. aureus
[2] = test system: Streptococcus pyogenes (UC 152); settings: UC152, read-out: Minimum Inhibitory Concentrations (MIC) S. pyogenes

Compound: CC(=O)NC[C@H]1CN(c2ccc(N3CCC(=Nn4cnnc4)CC3)c(F)c2)C(=O)O1 [compound 51, (S)-N-(3-{3-fluoro-4-[4-([1,2,4]triazol-4-ylimino)-piperidin-1-yl]-phenyl}-2-oxo-oxazolidin-5-ylmethyl)-acetamide]
- MIC [1]: 1 µg/mL (≈ 2.41 µM)
- MIC (Staphylococcus aureus): 4 µg/mL (≈ 9.63 µM)
- MIC [2]: 2 µg/mL (≈ 4.81 µM)

Compound: COCOCC1COC2(CCN(c3ccc(N4C[C@H](CNC(C)=O)OC4=O)cc3F)CC2)O1 (stereo partly drawn) [compound 57, (S)-N-(3-{3-fluoro-4-[2-(methoxymethoxy-methyl)-1,4-dioxa-8-aza-spiro[4.5]dec-8-yl]-phenyl}-2-oxo-oxazolidin-5-ylmethyl)-acetamide]
- MIC [1]: 4 µg/mL (≈ 8.56 µM)
- MIC (Staphylococcus aureus): 16 µg/mL (≈ 34.2 µM)
- MIC [2]: 8 µg/mL (≈ 17.1 µM)

Compound: CON=C1CCN(c2ccc(N3C[C@H](CNC(C)=O)OC3=O)cc2F)CC1 [Compound No. 29, (S)-N-{3-[3-fluoro-4-(4-methoxyimino-piperidin-1-yl)-phenyl]-2-oxo-oxazolidin-5-ylmethyl}-acetamide]
- MIC [1]: 1 µg/mL (≈ 2.64 µM)
- MIC (Staphylococcus aureus): 4 µg/mL (≈ 10.6 µM)
- MIC [2]: 4 µg/mL (≈ 10.6 µM)

Compound: CC(=O)NC[C@H]1CN(c2ccc(N3CCC(=NN4CCN(CCO)CC4)CC3)c(F)c2)C(=O)O1 [compound 49, (S)-N-[3-(3-fluoro-4-{4-[4-(2-hydroxy-ethyl)-piperazin-1-ylimino]-piperidin-1-yl)-phenyl)-2-oxo-oxazolidin-5-ylmethyl]-acetamide]
- MIC [1]: 0.5 µg/mL (≈ 1.05 µM)
- MIC (Staphylococcus aureus): 4 µg/mL (≈ 8.39 µM)
- MIC [2]: 1 µg/mL (≈ 2.1 µM)

Compound: CC(=O)NC[C@H]1CN(c2ccc(N3CCC(=NN4CCOCC4)CC3)c(F)c2)C(=O)O1 [compound 40, (S)-N-(3-{3-fluoro-4-[4-(morpholin-4-ylimino)-piperidin-1-yl]-phenyl}-2-oxo-oxazolidin-5-ylmethyl)-acetamide]
- MIC [1]: 0.5 µg/mL (≈ 1.15 µM)
- MIC (Staphylococcus aureus): 4 µg/mL (≈ 9.23 µM)
- MIC [2]: 2 µg/mL (≈ 4.61 µM)

Compound: CC(=O)NC[C@H]1CN(c2ccc(N3CCC(C4(CO)OCCO4)CC3)c(F)c2)C(=O)O1 [Compound No. 44, (S)-N-(3-{3-fluoro-4-[4-(2-hydroxymethyl-[1,3]dioxolan-2-yl)-piperidin-1-yl]-phenyl}-2-oxo-oxazolidin-5-ylmethyl)-acetamide]
- MIC [1]: 2 µg/mL (≈ 4.57 µM)
- MIC (Staphylococcus aureus): 16 µg/mL (≈ 36.6 µM)
- MIC [2]: 24 µg/mL (≈ 54.9 µM)

Compound: CC(=O)NC[C@H]1CN(c2ccc(N3CCC(=NOC(=O)COCc4ccccc4)CC3)c(F)c2)C(=O)O1 [compound 45, (S)-N-{3-[3-fluoro-4-(4-benzyloxyacetoxyimino-piperidin-1-yl)-phenyl]-2-oxo-oxazolidin-5-ylmethyl}-acetamide]
- MIC [1]: 0.5 µg/mL (≈ 0.976 µM)
- MIC (Staphylococcus aureus): 2 µg/mL (≈ 3.9 µM)
- MIC [2]: 2 µg/mL (≈ 3.9 µM)

Compound: CC(=O)NC[C@H]1CN(c2ccc(N3CCC(N)CC3)c(F)c2)C(=O)O1 [Compound No. 6, (S)-N-{3-[4-(4-amino-piperidin-1-yl)-3-fluoro-phenyl]-2-oxo-oxazolidin-5-ylmethyl}-acetamide]
- MIC [1]: 32 µg/mL (≈ 91.3 µM)
- MIC (Staphylococcus aureus): > 64 µg/mL
- MIC [2]: 1 µg/mL (≈ 2.85 µM)

Compound: COCON=C1CCN(c2ccc(N3C[C@H](CNC(C)=O)OC3=O)cc2F)CC1 [compound 60, (S)-N-{3-[3-fluoro-4-(4-methoxymethoxyimino-piperidin-1-yl)-phenyl]-2-oxo-oxazolidin-5-ylmethyl}-acetamide]
- MIC [1]: 2 µg/mL (≈ 4.9 µM)
- MIC (Staphylococcus aureus): 8 µg/mL (≈ 19.6 µM)
- MIC [2]: 2 µg/mL (≈ 4.9 µM)

Compound: CCOC(=O)CC(=O)NN=C1CCN(c2ccc(N3C[C@H](CNC(C)=O)OC3=O)cc2F)CC1 [compound 56, (S)-(1-{4-[5-(acetylamino-methyl)-2-oxo-oxazolidin-3-yl]-2-fluorophenyl}-piperidin-4-ylidenehydrazinocarbonyl)-acetic acid ethyl ester]
- MIC [1]: 1 µg/mL (≈ 2.09 µM)
- MIC (Staphylococcus aureus): 4 µg/mL (≈ 8.38 µM)
- MIC [2]: 2 µg/mL (≈ 4.19 µM)

Compound: CONC1CCN(c2ccc(N3C[C@H](CNC(C)=O)OC3=O)cc2F)CC1 [Compound No. 59, (S)-N-{3-[3-fluoro-4-(4-methoxyamino-piperidin-1-yl)-phenyl]-2-oxo-oxazolidin-5-ylmethyl}-acetamide]
- MIC [1]: 2 µg/mL (≈ 5.26 µM)
- MIC (Staphylococcus aureus): 4 µg/mL (≈ 10.5 µM)
- MIC [2]: 4 µg/mL (≈ 10.5 µM)

Compound: CC(=O)NC[C@H]1CN(c2ccc(N3CCC(C(C)=O)CC3)c(F)c2)C(=O)O1 [compound 36, (S)-N-{3-[4-(4-acetyl-piperidin-1-yl)-3-fluoro-phenyl]-2-oxo-oxazolidin-5-ylmethyl}-acetamide]
- MIC [1]: 1 µg/mL (≈ 2.65 µM)
- MIC (Staphylococcus aureus): 4 µg/mL (≈ 10.6 µM)
- MIC [2]: 2 µg/mL (≈ 5.3 µM)

Compound: CC(=O)NC[C@H]1CN(c2ccc(N3CCC4(CC3)OCC(CO)O4)c(F)c2)C(=O)O1 (stereo partly drawn) [Compound No. 52, (S)-N-{3-[3-fluoro-4-(2-hydroxymethyl-1,4-dioxa-8-aza-spiro[4.5]dec-8-yl)-phenyl]-2-oxo-oxazolidin-5-ylmethyl}-acetamide]
- MIC [1]: 2 µg/mL (≈ 4.72 µM)
- MIC (Staphylococcus aureus): 16 µg/mL (≈ 37.8 µM)
- MIC [2]: 4 µg/mL (≈ 9.45 µM)

Compound: CC(=O)NC[C@H]1CN(c2ccc(N3CCC(=NNC(=O)CO)CC3)c(F)c2)C(=O)O1 [compound 50, (S)-N-[3-(3-fluoro-4-{4-[(2-hydroxy-acetyl)-hydrazono]-piperidin-1-yl}-phenyl)-2-oxo-oxazolidin-5-ylmethyl]-acetamide]
- MIC [1]: 4 µg/mL (≈ 9.49 µM)
- MIC (Staphylococcus aureus): 16 µg/mL (≈ 38 µM)
- MIC [2]: 4 µg/mL (≈ 9.49 µM)

Compound: CC(=O)NC[C@H]1CN(c2ccc(N3CCC(CC4(C)OCCO4)CC3)c(F)c2)C(=O)O1 [Compound No. 32, (S)-N-(3-{3-fluoro-4-[4-(2-methyl-[1,3]dioxolan-2-ylmethyl)-piperidin-1-yl]-phenyl}-2-oxo-oxazolidin-5-ylmethyl)-acetamide]
- MIC [1]: 4 µg/mL (≈ 9.18 µM)
- MIC (Staphylococcus aureus): 16 µg/mL (≈ 36.7 µM)
- MIC [2]: 4 µg/mL (≈ 9.18 µM)

Compound: COCOC1CCN(c2ccc(N3C[C@H](CNC(C)=O)OC3=O)cc2F)CC1 [compound 27, (S)-N-{3-[3-fluoro-4-(4-methoxymethoxy-piperidin-1-yl)-phenyl]-2-oxo-oxazolidin-5-ylmethyl}-acetamide]
- MIC [1]: 2 µg/mL (≈ 5.06 µM)
- MIC (Staphylococcus aureus): 8 µg/mL (≈ 20.2 µM)
- MIC [2]: 8 µg/mL (≈ 20.2 µM)

Compound: CC(=O)NC[C@H]1CN(c2ccc(N3CCC4(CC3)OCCN4C(=O)CO)c(F)c2)C(=O)O1 [Compound No. 54, (S)-N-(3-{3-fluoro-4-[4-(2-hydroxy-acetyl)-1-oxa-4,8-diaza-spiro[4.5]dec-8-yl]-phenyl}-2-oxo-oxazolidin-5-ylmethyl)-acetamide]
- MIC [1]: 4 µg/mL (≈ 8.88 µM)
- MIC (Staphylococcus aureus): 16 µg/mL (≈ 35.5 µM)
- MIC [2]: 4 µg/mL (≈ 8.88 µM)

Compound: COC(=O)ON=C1CCN(c2ccc(N3C[C@H](CNC(C)=O)OC3=O)cc2F)CC1 [compound 38, (S)-N-{3-[3-fluoro-4-(4-methoxycarbonyloxyimino-piperidin-1-yl)-phenyl]-2-oxo-oxazolidin-5-ylmethyl}-acetamide]
- MIC [1]: 0.5 µg/mL (≈ 1.18 µM)
- MIC (Staphylococcus aureus): 2 µg/mL (≈ 4.73 µM)
- MIC [2]: 1 µg/mL (≈ 2.37 µM)

Compound: CC(=O)NC[C@H]1CN(c2ccc(N3CCC(N(C)C)CC3)c(F)c2)C(=O)O1 [Compound No. 67, (S)-N-{3-[4-(4-dimethylamino-piperidin-1-yl)-3-fluoro-phenyl]-2-oxo-oxazolidin-5-ylmethyl}-acetamide]
- MIC [1]: 2 µg/mL (≈ 5.28 µM)
- MIC (Staphylococcus aureus): 32 µg/mL (≈ 84.6 µM)
- MIC [2]: 1 µg/mL (≈ 2.64 µM)

Compound: CC(=O)NC[C@H]1CN(c2ccc(N3CCC(NC(=O)CO)CC3)c(F)c2)C(=O)O1 [compound 10, (S)-N-(1-{4-[5-(acetylamino-methyl)-2-oxo-oxazolidin-3-yl]-2-fluoro-phenyl}-piperidin-4-yl)-2-hydroxy-acetamide]
- MIC [1]: 2 µg/mL (≈ 4.9 µM)
- MIC (Staphylococcus aureus): 16 µg/mL (≈ 39.2 µM)
- MIC [2]: 2 µg/mL (≈ 4.9 µM)

Compound: CC(=O)NC[C@H]1CN(c2ccc(N3CCC(=NOCC(O)CO)CC3)c(F)c2)C(=O)O1 (stereo partly drawn) [Compound No. 62, (S)-N-(3-{4-[4-(2,3-dihydroxy-propoxyimino)-piperidin-1-yl]-3-fluorophenyl}-2-oxo-oxazolidin-5-ylmethyl)-acetamide]
- MIC [1]: 1 µg/mL (≈ 2.28 µM)
- MIC (Staphylococcus aureus): 8 µg/mL (≈ 18.2 µM)
- MIC [2]: 2 µg/mL (≈ 4.56 µM)
